Test results: patent publication US11702402B2, “Small molecules that block proteasome-associated ubiquitin receptor RPN13 function and uses thereof” (DANA-FARBER CANCER INSTITUTE, INC., priority 2018, dated 2023)
Where a SMILES comes first, the peptide text is derived from it. The star is where a group is joined. Cbz = O=C(OCc1ccccc1)*

Experiments:
normal PBMCs = experiment: Viability of normal PBMCs; type: cell-based, Human; conditions: at the IC50; 48 hours; Wst-1
Procedure: FIGS. 5A and 5B show PBMCs from normal healthy donor treated with WL40 and WL44 at the indicated concentrations for 48 hours. […]
The IC50 of WL40 for cell lines is shown.

[1] = test system: HCT116 and HCT116-Rpn13KO cell lines; experiment: HCT116 and HCT116-Rpn13KO cell viability; type: cell-based; conditions: HCT116 versus HCT116-Rpn13KO; 48 hours; Wst-1
Procedure: FIGS. 8A and 8B show HCT116 and HCT116-Rpn13KO cell lines that were treated with WL40 or WL44 at the indicated concentrations for 48 hours. Wst-1 assay was used to test cell viability.
CRISPR-Cas9 genome editing was performed to generate Rpn13-knockout (Rpn13-KO) HCT116 and MM.1S cell lines. Cells were transfected with Rpn13-CRISPR/Cas9-knockout (KO) plasmid (Santa Cruz Biotechnology, Inc., Santa Cruz, Calif., USA) using Lipofectamine 2000 (Thermo Fisher Scientific, Waltham, Mass., USA) or the cell line Nucleofector Kit V (Amaxa Biosystems, Cologne, Germany), respectively. After 48 h incubation, green fluorescent protein (GFP)-positive cells were sorted. Rpn13 KO was confirmed by both protein expression studies and DNA sequencing.

MM.1S CRBN KO cells = experiment: MM.1S CRBN KO cell viability; type: cell-based, Human; conditions: MM.1S-CRBN KO; 24 hours; Wst-1
Excerpt: FIGS. […] Wst-1 assay was used to test cell viability.
The experiment was repeated twice and JQRA concentration was increased (as indicated) at the second time.

[2] = test system: multiple myeloma cell lines; experiment: Viability of a panel of multiple myeloma cell lines; type: cell-based, Human; conditions: multiple myeloma cell lines; 48 hours; Wst-1
Excerpt: FIGS. […] Wst-1 assay was used to test cell viability. FIGS. 6A and 6B show the effect of exemplary bifunctional compounds WL40 and WL44 on multiple myeloma cell lines.

RPN13 = RPN13 (Homo sapiens, UniProt Q16186); experiment: Rpn13 immunoblot in MM.1S cells; type: cell-based; parameters: endogenous in cells; host or cells: MM.1S; MM.1S-CRBN KO; RPMI-8226; ANBL6.BR
Chain of RPN13 (Q16186 whole entry): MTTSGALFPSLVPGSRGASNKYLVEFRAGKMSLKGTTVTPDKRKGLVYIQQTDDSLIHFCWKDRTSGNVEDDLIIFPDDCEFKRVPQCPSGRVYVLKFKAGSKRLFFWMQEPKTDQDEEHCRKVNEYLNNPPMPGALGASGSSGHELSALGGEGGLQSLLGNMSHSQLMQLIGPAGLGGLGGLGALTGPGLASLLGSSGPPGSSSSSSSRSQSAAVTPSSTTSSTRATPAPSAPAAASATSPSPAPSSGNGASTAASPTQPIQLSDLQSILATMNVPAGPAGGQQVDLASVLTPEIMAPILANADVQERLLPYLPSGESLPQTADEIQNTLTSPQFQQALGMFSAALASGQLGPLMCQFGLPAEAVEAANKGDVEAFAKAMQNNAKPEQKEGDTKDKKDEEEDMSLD
Procedure: Protein lysates were loaded on SDS-PAGE and transferred to PVDF membrane, and then immunoblotted with anti-alpha tubulin and Rpn13 antibodies.
In FIG. 17, MM.1S cells were treated with RA190 or JQRA at 200 nM and 400 nM, respectively, for 48 hours; and treated with RA190 or JQRA at 200 nM and 800 nM, respectively, for 48 hours. Protein lysates were loaded on SDS-PAGE and transferred to PVDF membrane, and then immunoblotted with anti-alpha tubulin and Rpn13 antibodies.
MM.1S cells, which were treated with DMSO control, bortezomib, or WL40 at indicated concentration for 3 hours; protein lysates were analyzed for different proteasome activities (CT-L, chymotrypsin-like; T-L, trypsin-like; C-L, caspase-like). FIG. 20B is a bar graph showing percent proteasome activity after normalization with DMSO control (mean±SD; n=3). Recombinant 20S proteasome was incubated with DMSO, bortezomib, or WL40 for 30 minutes, followed by assessment of the above-noted proteasome activities. FIG. 20C MM.1S cells were pretreated with exemplary proteasome inhibitor MG132 (10 μM) for 1 hour, followed by addition of WL40 (400 nM) for 8 hours. […] Total protein lysates were subjected to immunoblots for Rpn13 and α-tubulin. […] FIG. 20E ANBL6.BR cells were treated with WL40 (400 nM) or RA190 (500 nM) for 16 hours; protein lysates were subjected to immunoblot analysis using anti-Rpn13 or anti-β-actin Abs.
Cellular protein extracts were prepared using RIPA lysis buffer (50 mM Tris-HCl, 150 mM NaCl, 1% NP-40, 0.5% sodium deoxycholate, and 0.1% SDS). Protein lysates were subjected to immunoblotting using antibodies against poly ADP ribose polymerase (PARP, BD Bioscience Pharmingen, San Diego, Calif.), caspase 3, caspase 8, p53 (Santa Cruz Biotechnology), caspase 9, p-eIF2a (Abeam, Cambridge, Mass.), caspase 7, cyclin B1, CDC25C, CDCl2, p21, Rpn13, PERK, BIP, Calnexin, GFP, LC3A/B, α-tubulin (Cell Signaling, Beverly, Mass.), polyubiquitin (Enzo Life Sciences, Inc., Farmingdale, N.Y.), or β-actin (Sigma-Aldrich, St. Louis, Mo.).
Next, it was examined whether WL40 decreases cellular Rpn13 levels in MM cells. MM.1S cells were treated with various concentrations of WL40 (20 0 nM, 400 nM, or 800 nM) for 4 hours, 8 hours, and 16 hours; protein lysates were then analyzed for Rpn13 levels using immunoblot analysis. […] Decrease in Rpn13 levels was detectable as early as 8 hours after WL40 treatment and maximally (95%) reduced at 16 hours. Rpn13 protein level reduction was not observed with RA190 treatment (FIG. 19E, lower panel). There was no change in protein levels of tubulin, used as a loading control (FIG. 19E). To further corroborate the findings, MM.1S cells were treated with WL40, and then analyzed intracellular alterations in Rpn13 using flow cytometry.

MM.1S cells = experiment: MM.1S cell viability (WST); conditions: 24 hours, Wst-1
Procedure: FIGS. 4A and 4B show multiple myeloma 1S (MM.1S) cells treated with RA190, WL40, and WL44 at the indicated concentrations for 24 hours. Wst-1 assay was used to test cell viability.
In FIG. 13B, multiple myeloma cells (MM.1S) were treated with RA190 or compound JQRA at the indicated concentrations for 72 hours, and the percentage of viable cells was measured.
Purified CD138^+ patient MM cells, which were treated with DMSO control or WL40 at indicated concentrations for 48 hours, followed by assessment for cell viability using CellTiter-Glo assay (mean±SD of triplicate cultures; p<0.001). […] Normal PBMCs from healthy donors were treated with DMSO control or WL40 at indicated concentrations for 48 hours, and then analyzed for cell viability using CellTiter-Glo assay (mean±SD of quadruplicate cultures). […] MM.1S cells were cultured with or without patient BMSCs in the presence or absence of WL40 for 48 hours, and cell proliferation was measured by WST assay (mean±SD; n=3; p<0.0001). […] MM.1S cells were cultured with or without patient pDCs in the presence or absence of WL40 for 48 hours, and cell proliferation was measured by WST assay (mean±SD; n=3; p<0.0001).

[3] = test system: Ub-tagged GFP that is constitutively targeted for proteasomal degradation; experiment: Ub-GFP (GFPu-1) reporter cell line immunoblot; type: cell-based; conditions: WL40, WL44 0.5-2.0 μM; RA190 1 μM; 16 hours
Procedure: Cell lysates were loaded on SDS-PAGE, transferred to PVDF membrane, then immunoblotted with anti-GFP, and anti beta-actin antibodies.
In FIG. 18, a reporter cell line expressing Ub-tagged GFP that is constitutively targeted for proteasomal degradation was treated with RA190 ([…]); and JQRA ([…]) for 16 hours. Cell lysates were loaded on SDS-PAGE, transferred to PVDF membrane, then immunoblotted with anti-GFP, and anti-alpha tubulin antibodies.
FIGS. 19A-19I show the exemplary design and characterization of exemplary Rpn13 degrader WL40. […] WL40 was created by linking the Rpn13 inhibitor RA190 to the IMiD thalidomide as a ligand for the CRBN E3 ligase via a PEG linker. […] FIG. 19C is a schematic cartoon for the novel AlphaScreen assay to measure the binding activity of inhibitor with RPN13 proteins. […] FIG. 19E depicts immunoblot analysis of multiple myeloma 1S (MM.1S) cells, which were treated with WL40 or RA190 at the indicated concentrations and time periods; protein lysates were subjected to the immunoblot analysis using anti-Rpn13 or anti-tubulin Abs. FIG. 19F depicts flow cytometry analysis of MM.1S cells, which were treated with DMSO control, WL40 (400 nM), or RA190 (500 nM) for 16 hours; cells were then washed and stained with Rpn13 Ab conjugated with AlexaFluor-647, followed by the flow cytometry analysis. Isotype Ab conjugated to AlexaFluor-647 was used as control for non-specific binding. Data was quantified using FACS Diva (BD Biosciences, USA) and FlowJo (FlowJo LLC, USA). FIG. 19G depicts immunoblot analysis of MM.1S-CRBN KO cells, which were treated with WL40 (400 nM) or RA190 (500 nM) for 16 hours; protein lysates were subjected to the immunoblot analysis using anti-Rpn13 or anti β-actin Abs. […]
To confirm that CRBN presence is a prerequisite for the function of WL40 in cells, CRBN-knockout (KO) MM.1S cells^27, 38 were utilized, and the effect of WL40 on Rpn13 degradation was examined. […] GFPu-1 cells were treated with WL40, and GFP levels were then analyzed using immunoblotting. […]

Row | cell viability IC50 [2] | Rpn13 levels (immunoblot) (RPN13; MM.1S cells, 200 nM, 400 nM, 800 nM, 4, 8, 16 hours) | cell viability IC50 (MM.1S cells) | Structure (SMILES) | viability of normal PBMCs (normal PBMCs) | RPN13 dependence of cytotoxicity [1] | cell viability (MM.1S CRBN KO cells) | Ub-GFP levels / proteasome function (immunoblot) [3] | WL40-mediated Rpn13 degradation after proteasome inhibitor pretreatment (RPN13; MM.1S, MG132 (10 μM) 1 hour, then WL40 (400 nM) 8 hours)
1 | high IC50 in several cell lines | degrade Rpn13 | lower IC50 compared to compound RA190 | O=C1CCC(N2C(=O)c3ccc(NCCOCCOCCOCCC(=O)N[C@H](Cc4ccccc4)C(=O)N4C/C(=C\c5ccc(Cl)c(Cl)c5)C(=O)/C(=C/c5ccc(Cl)c(Cl)c5)C4)cc3C2=O)C(=O)N1 (some centres unmarked) [WL44] | do not significantly affect the viability | RPN13-dependent | decrease cell viability | block proteasome function | 
2 |  |  |  | CC(C)C[C@@H](C=O)NC(=O)[C@H](CC(C)C)NC(=O)[C@H](CC(C)C)NC(=O)OCc1ccccc1 [MG132, reference compound] (Cbz-Leu-Leu-Leu-aldehyde) |  |  |  |  | blocked WL40-mediated Rpn13 degradation
